Data taken from patent US9314522B2, “Antitumors combinations containing antibodies recognizing specifically CD38 and bortezomib” (Sanofi, priority 2010, dated 2016).
Like-named read-outs stand apart in the source and are kept apart here.

Key:
[1] = Body weight loss as index of test agent toxicity in NCI-H929 tumor-bearing mice; type: in vivo, SCID mice; settings: days 34, 37
Description: The animals subjected to the experiment, generally mice, are subcutaneously grafted unilaterally or bilaterally with tumor cells or fragment on day 0. The animals bearing tumors are randomized based on their tumor size before being subjected to the various treatments and controls. Chemotherapy begins when tumors have reached a predetermined size after grafting, depending on the type of tumor, and the animals are observed every day. The different animal groups are weighed daily during treatment until the maximum weight loss is reached and subsequent full weight recovery has occurred. The groups are then weighed once or twice a week until the end of the trial.
Body weights were measured twice per week as a rough index of test agent toxicity. Tumor volume and body weight were determined and recorded by Labcat software.
Toxicity was declared at dosages inducing 20% body weight loss or 10% drug death, […]

[2] = tested on: NCI-H929 tumor xenografts; settings: days 34, 37
Description: A product is considered to be active if log10 cell kill is greater than or equal to 0.7. A product is considered to be very active if log10 cell kill is greater than or equal to 2.8.
The combination will manifest therapeutic synergy when the log10 cell kill is greater than the value of the log10 cell kill of the best constituent administered alone at its maximum tolerated dose or at its highest dose tested.
The animals subjected to the experiment, generally mice, are subcutaneously grafted unilaterally or bilaterally with tumor cells or fragment on day 0. The animals bearing tumors are randomized based on their tumor size before being subjected to the various treatments and controls. Chemotherapy begins when tumors have reached a predetermined size after grafting, depending on the type of tumor, and the animals are observed every day. […] The groups are then weighed once or twice a week until the end of the trial.
The tumors are measured 1 to 5 times a week, depending on the tumor doubling time, until the tumor reaches approximately 750 mg, or until the animal dies (if this occurs before the tumor reaches 750 mg). The animals are necropsied immediately after euthanasia or death.
Hu38SB19 and Bortezomib treatments were started thirty four days after cell inoculation and doses were calculated based on individual animal body weights determined from the last measurement taken before dosing. Administration of PBS and hu38SB19 antibody was carried out through intraperitoneal (IP) injection and bortezomib by intravenous (IV) injection via the tail vein, using a 1.0 mL syringe fitted with a 27 gauge, ½ inch needle.
Thirty-three days after tumor cell inoculation, sixty-four mice were randomized into 8 groups (n=8) by tumor volume. […] Mice in each group were identified by a puncture in the ear.
Treatment groups included PBS control (200 μL/mouse/treatment), hu38SB19 antibody (5.0 mg/kg/treatment), bortezomib (1.0, 0.6 and 0.4 mg/kg/treatment) and three combination groups with hu38SB19 (5.0 mg/kg/treatment) and bortezomib (1.0, 0.6 and 0.4 mg/kg/treatment). PBS, hu38SB19 and bortezomib were administered twice per week for one week (days 34 and 37 for a total of 2 treatments). Treatments were started on day 34 post inoculation of tumor cells.
Tumor volumes were measured one to two times weekly in three dimensions using a caliper. The tumor volume was expressed in mm^3 (or mg) using the formula: V=Length×Width×Height×½.
Tumor Free Survivors (TFS): correspond to complete regression below the limit of palpation (63 mg) for the entire duration of the study (>100 days post last treatment).

[3] = Bortezomib IV 0.4 mg/kg/injection (total 0.8)
[4] = Bortezomib IV 0.4 mg/kg/injection (total 0.8), 0.4 mg/kg
[5] = Bortezomib IV 0.4 mg/kg/injection (total 0.8), listed as bortezomib, 0.4 mg/kg
[6] = Bortezomib IV 0.6 mg/kg/injection (total 1.2)
[7] = Bortezomib IV 0.6 mg/kg/injection (total 1.2), 0.6 mg/kg
[8] = Bortezomib IV 0.6 mg/kg/injection (total 1.2), listed as bortezomib, 0.6 mg/kg
[9] = Bortezomib IV 1.0 mg/kg/injection (total 2.0)
[10] = Bortezomib IV 1.0 mg/kg/injection (total 2.0), 1 mg/kg
[11] = Bortezomib IV 1.0 mg/kg/injection (total 2.0), listed as bortezomib, 1 mg/kg

CC(C)C[C@H](NC(=O)[C@H](Cc1ccccc1)NC(=O)c1cnccn1)B(O)O [Bortezomib, [(1R)-3-methyl-1-({(2S)-3-phenyl-2-[(pyrazin-2-ylcarbonyl)amino]propanoyl}amino)butyl]boronic acid]
Average body weight loss in % per mouse at nadir (day of nadir) ([1]; Bortezomib IV 0.4 mg/kg/injection (total 0.8), nadir d36): 0.8 (d36) %
Average body weight loss in % per mouse at nadir (day of nadir) ([1]; Bortezomib IV 0.6 mg/kg/injection (total 1.2), nadir d40): 0.6 (d40) %
Average body weight loss in % per mouse at nadir (day of nadir) ([1]; Bortezomib IV 1.0 mg/kg/injection (total 2.0), nadir d36): 7.0 (d36) %
T-C in days (tumor growth delay) [2, 3]: 7 days
Time for median tumor to reach 750 mg [2, 3]: 69 days
log cell kill [2, 3]: 0.1
% T/C [2, 4]: 74%
Comments (anti-tumor activity rating) [2, 4]: Inactive
TFS at day 176 (tumor free survivors) [2, 4]: 1/8
% T/C [2, 5]: 45%
Comments (anti-tumor activity rating) [2, 5]: inactive
TFS at day 176 (tumor free survivors) [2, 5]: single TFS
T-C in days (tumor growth delay) [2, 6]: 18 days
Time for median tumor to reach 750 mg [2, 6]: 80 days
log cell kill [2, 6]: 0.3
% T/C [2, 7]: 45%
Comments (anti-tumor activity rating) [2, 7]: Inactive
TFS at day 176 (tumor free survivors) [2, 7]: 0/8
% T/C [2, 8]: 75%
Comments (anti-tumor activity rating) [2, 8]: inactive
TFS at day 176 (tumor free survivors) [2, 8]: No TFS
% T/C [2, 9]: 15%
T-C in days (tumor growth delay) [2, 9]: 37 days
Time for median tumor to reach 750 mg [2, 9]: 99 days
log cell kill [2, 9]: 0.6
Comments (anti-tumor activity rating) [2, 10]: Active
TFS at day 176 (tumor free survivors) [2, 10]: 2/8
Comments (anti-tumor activity rating) [2, 11]: somewhat active
TFS at day 176 (tumor free survivors) [2, 11]: 2
